Test results taken from patent US6407108B1, “1,2,4-triazolo(4,3-b)pyrido(3,2-d)pyridazine derivatives and pharmaceutical compositions containing them” (Almirall Prodesfarma, S.A., priority 1997, dated 2002).

Tests used:
[1] = target: cyclic nucleotide phosphodiesterase 4 from guinea-pig hearts; test: Inhibition of cyclic nucleotide phosphodiesterase 4 (96-well microtiter plates, Verghese et al.); assay type: biochemical; conditions: PDE 4 from guinea-pig hearts; read-out: PDE4 IC50
Protocol: The inhibition of cyclic nucleotide phosphodiesterase 4 from guinea-pig hearts was performed using 96-well microtiter plates as described by Verghese et al., (Molecular Pharmacology, 47, 1164-1171 (1995)).

Row | Structure (SMILES) | IC50 [1] [nM] | melting point [°C]
1 | CCCCc1nnc2c3cccnc3c(-c3ccccc3)nn12 [Compound 6] | 2000 | 162.9
2 | Fc1cccc(-c2nn3c(CC4CCCC4)nnc3c3cccnc23)c1 [Compound 47] | 700 | 145
3 | CC(C)(C)c1nnc2c3cccnc3c(-c3ccccc3)nn12 [Compound 8, 3-t-butyl-6-phenyl-1,2,4-triazolo[4,3-b]pyrido[3,2-d]pyridazine] | – | 188.1
4 | O=[N+]([O-])c1cccc(-c2nn3c(CC4CC4)nnc3c3cccnc23)c1 [Compound 112, 3-cyclopropylmethyl-6-(3-nitrophenyl)-1,2,4-triazolo[4,3-b]pyrido[3,2-d]pyridazine] | 700 | 164
5 | CC(C)Cc1nnc2c3cccnc3c(-c3cccc([N+](=O)[O-])c3)nn12 [Compound 109] | 40 | 178
6 | Clc1cccc(-c2nn3c(CC4CCC4)nnc3c3cccnc23)c1 [Compound 61] | 2000 | 156
7 | c1ccc(-c2nn3c(C4CC4)nnc3c3cccnc23)cc1 [Compound 12, 3-cyclopropyl-6-phenyl-1,2,4-triazolo[4,3-b]pyrido[3,2-d]pyridazine] | 3000 | 244.3
8 | CC(C)Cc1nnc2c3cccnc3c(-c3cccc(Cl)c3)nn12 [Compound 55] | 200 | 113
9 | CC(C)Cc1nnc2c3cccnc3c(-c3ccc(F)cc3)nn12 [Compound 31, 6-(4-fluorophenyl)-3-isobutyl-1,2,4-triazolo[4,3-b]pyrido[3,2-d]pyridazine] | 200 | 135
10 | Clc1cccc(-c2nn3c(CC4CC4)nnc3c3cccnc23)c1 [Compound 60] | 100 | 136
11 | CC(C)Cc1nnc2c3ccccc3c(-c3ccccc3)nn12 [Compound A, 3-isobutyl-6-phenyl-1,2,4-triazolo[3,4-a]phthalazine, reference compound] | 10000 | –
12 | O=[N+]([O-])c1cccc(-c2nn3c(CC4CCC4)nnc3c3cccnc23)c1 [Compound 113, 3-cyclobutylmethyl-6-(3-nitrophenyl)-1,2,4-triazolo[4,3-b]pyrido[3,2-d]pyridazine] | 200 | 150
13 | CC(C)Cc1nnc2c3cccnc3c(-c3ccccc3)nn12 [Compound 7] | 300 | 179.7
